Assay results from patent publication US5710174A, “Factor XIIIA inhibitor” (Zymo Genetics, Inc., priority 1995, dated 1998).

Key:
[1] = Solubility in ethanol / DMSO; type: physicochemical
Factor Xa (FXa) = assay: Factor Xa inhibition assay; type: biochemical; details: up to 100 μM, absorbance at 405 nm
Method: (§1) For the FVIIa, FXa and thrombin inhibition assays described below, an inhibition assay buffer containing 50 mM Tris, 5 mM CaCl2, 150 mM NaCl, 0.1% Tween 20, and 0.1% BSA (albumin, bovine, Sigma fraction V (Sigma)) at about pH 8.0 was used 2. For each of the inhibition assays, the total reaction volume was 100 μl and the assays were performed in 96-well plates.
(§2) About 30 μl inhibition assay buffer, 50 μl of 10 nM FXa and 10 μl of one of a series of dilutions of ZG-1400a were added to plate wells. The ZG-1400a was prepared in 10% DMSO and tested using half-log dilutions, starting at a final assay concentration of 100 μM and diluting to 1 nM. A negative (no inhibition) control contained 30 μl inhibition assay buffer, 50 μl of 10 nM FXa, and enough DMSO to give a 1% final DMSO concentration.
The test and control wells were incubated for about 10 min at room temperature. After the incubation period, 10 mM N-α-benzyloxycarbonyl-D-arginine-L-glycyl-L-arginyl-p-nitroanilide-dihydrochloride (S2765 substrate, Kabi) was added to each well.
(§3) This determination was made by reading absorbance at 405 nm on a ThermoMax microplate reader.

Factor IX (FIX) = assay: Factor IX inhibition assay; type: biochemical; details: up to 100 μM, absorbance at 405 nm
Method: 60 μl buffer, 10 μl of 40 nM FIX, and 10 μl of one of a series of dilutions of ZG-1400a were added to plate wells. The buffer contained 150 mM NaCl, 5 mM CaCl2, 25 mM Tris, pH 8.0, and 0.1% polyethyleneglycol (PEG). The ZG-1400a was prepared in 10% DMSO and tested using half-log dilutions, starting at a final assay concentration of 100 μM and diluting to 1 nM. A negative (no inhibition) control contained 60 μl buffer, 10 μl of 40 nM FIX, and enough DMSO to give a 1% final DMSO concentration.
The test and control wells were incubated approximately 10 min at room temperature. After incubation, approximately 10 μl of a mixture containing 200 nM FX (Walt Kiesel, University of New Mexico), 500 pM FVIII (Novo Nordisk) and 10 μM PCPS (phosphatidylcholine:phosphatidylserine (Sigma) in a 1:1 ratio) was added to each well. Then 10 μl of 1 mM S2765 substrate (Kabi) was added to each well.
In this assay, FIX converts FX to FXa. […] This determination was made by reading absorbance at 405 nm on a ThermoMax microplate reader.

FVIIa = FVIIa inhibition assay; type: biochemical; details: up to 100 μM, absorbance at 405 nm
Method: as §1
For the FVIIa inhibition assay, about 30 μl of inhibition assay buffer, 25 μl of 20 nM recombinant FVIIa (Walt Kiesel, University of New Mexico), and 10 μl of one of a series of dilutions of ZG-1400a were added to plate wells. The ZG-1400a was prepared in 10% DMSO and tested using half-log dilutions, starting at a final assay concentration of 100 μM and diluting to 1 nM. A negative (no inhibition) control contained 30 μl inhibition assay buffer, 25 μl of 20 nM FVIIa, and enough DMSO to give a 1% final DMSO concentration.
The test and control wells were incubated for about 10 min at room temperature. After incubation, 25 μl of 20 nM tissue factor (Walt Kiesel, University of New Mexico) was added to the wells and incubated for a second 10 min period at room temperature. […]
as §3

thrombin = assay: Thrombin inhibition assay; type: biochemical, bovine; details: up to 100 μM, absorbance at 405 nm
Method: as §1
as §2, with “2 μg/ml thrombin (bovine, Enzyme Research Labs),” for “10 nM FXa”, “2 μg/ml thrombin,” for “10 nM FXa,”
The test and control wells were incubated for about 10 min at room temperature. After the incubation period, 20 μl of 1 mM SPECTROZYME TH (H-D-hexahydrotyrosyl-L-alanyl-L-arginine-p-nitroanilide-diacetate salt, American Diagnostica, Inc., New York, N.Y.) was added to each well.
as §3

SMILES	solubility [1]	inhibition of FXa activity (Factor Xa (FXa))	inhibition of FIX activity (Factor IX (FIX))	inhibition of FVIIa activity (FVIIa)	inhibition of thrombin activity (thrombin)
CC=CCC=CCCC(=O)C1OC1C(N)=O (centres unmarked) [Cerulenin, 2,3-epoxy-4-oxo-7,10-dodecadienamide]	soluble in ethanol, but not DMSO				
C[C@@H]1CCC/C=C\C(=O)Cc2cc(O)cc(O)c2C(=O)O1 [ZG-1400, R(-) enantiomer of cis-resorcylide]		not even the highest concentration of ZG-1400a assayed (100 μM) inhibited FXa activity	Not even the highest concentration of ZG-1400a assayed (100 μM) inhibited FIX activity	not even the highest concentration of ZG-1400a assayed (100 μM) inhibited FVIIa activity	not even the highest concentration of ZG-1400a assayed (100 μM) inhibited thrombin activity
